The subject of this assay is P. falciparum 3D7 growth, pLDH absorbance. In words: P. falciparum 3D7 growth inhibition, dose response, strain 3D7 (AID 2305).

IC50 data for 44 compounds are collected here from PubChem BioAssay AID2305 (GlaxoSmithKline (GSK), 2010).

“And” between values parts separate entries of the source, which are not always exact repeats. Identical values can stand only once.

In the case of `CCOC(=O)c1ccc(CC(C)NCC(O)c2cccc(C(F)(F)F)c2)cc1` (centres undefined), the IC50 was found to be 220 nM.

`COc1ccc(CNC(=O)C2Cc3ccccc3CN2Cc2ccc3ccccc3c2)cc1` (centres undefined) yielded an IC50 of 1100 nM.

`CCc1cc(NC2CCN(C)CC2)nc(Nc2ccc(C)cc2)n1` registered an IC50 of 690 nM.

As for `CC(C)(C)c1ccc2nc(-c3ccc(/C=C/C(=O)NC4CCN(Cc5ccccc5)CC4)cc3)[nH]c2c1`, the IC50 is 590 nM.

For `COc1ccc(-c2c(C(F)(F)F)nn(C)c2NC(=O)Nc2ccc(F)cc2F)cc1`, the half-inhibitory concentration (IC50) turned out to be 800 nM.

As for `O=C(Nc1ccc(Cn2ncc(N3CCCNCC3)c(Cl)c2=O)cc1)Nc1cccc(Oc2ccccc2)c1`, the IC50 came out at 990 nM.

In turn, `O=C(NC1CCCCC1)N(CCCn1ccnc1)Cc1csc(-c2ccc(CNCc3ccccc3)cc2)n1` gave a 50% inhibitory concentration (IC50) of 840 nM.

On to `CC(C)c1ccc(NC(=O)c2ccc(CN3CCCN(Cc4cccc(O)c4)CC3)cc2)cc1`, for which the concentration for half-maximal inhibition (IC50) worked out at 680 nM.

`CCCN1CCc2c(sc3nc(SCC(=O)Nc4ccc(C)cc4)n(-c4ccc(C)cc4)c(=O)c23)C1` had an IC50 of 870 nM.

The compound `CCc1[nH]nc(C(=O)Nc2cccc(N3CCCC3)c2)c1C` came in with an IC50 of 1460 nM.

For the compound `CCc1nc(N)nc(N)c1-c1ccc(F)c(F)c1`, the half-inhibitory concentration (IC50) was determined as 420 nM. This IC50 lies about 3.5-fold lower than the previous one.

Regarding `CN(C)c1ccc(-c2ccc(C(=O)NC3CCN(Cc4ccc5c(c4)OCCO5)CC3)s2)cc1`, the IC50 was 1120 nM. Against the preceding compound, the IC50 is about 2.7-fold higher.

In turn, `Cc1ccc(O)cc1Nc1ccnc2cc(-c3csc(CN4CCN(C)CC4)n3)ccc12` had an IC50 of 600 nM. This IC50 is about 1.9-fold lower than that of the compound before.

Consider `COc1ccc(CN2CCN(CCOC(c3ccc(F)cc3)c3ccc(F)cc3)CC2)c(O)c1`, for which the IC50 came out at 730 nM.

The compound `CCOC(=O)NCCSC(C)(C)[C@H](NC(=O)[C@H](Cc1cc2ccccc2s1)[C@H](CC)N(O)C=O)C(=O)Nc1nccs1` showed an IC50 of 300 nM. Against the preceding compound, the IC50 is about 2.4-fold lower.

Regarding `COc1cc(Cc2cnc3nc(N)nc(N)c3c2C)cc(OC)c1OC`, the IC50 was found to be 60 nM. This IC50 lies about 5-fold lower than the previous one.

The compound `CN(C)C[C@H](O)[C@@H](c1ccccc1)c1ccc(Cl)cc1` displayed a half-inhibitory concentration (IC50) of 50 nM.

Take `O=C(NCc1cccc(C(F)(F)F)c1)C(c1cc2ccccc2o1)N1CCN(C(c2ccccc2)c2ccccc2)CC1` (centres undefined): the 50% inhibitory concentration (IC50) was 500 nM. This IC50 is about 10-fold higher than that of the compound before.

Consider `Cc1ccccc1CN1CCCN(Cc2ccc(C(=O)Nc3ccc(Cl)cc3)cc2)CC1`, for which the IC50 stood at 940 nM.

In the case of `Cc1nc(-c2cccc(Nc3nccc(NCC(O)c4ccccc4C(F)(F)F)n3)c2)cs1` (centres undefined), the IC50 worked out at 830 nM.

Consider `Nc1c2nc(-c3c(F)cccc3Cl)[nH]c(=O)c2nc(=O)n1-c1ccccc1`, for which the IC50 was 680 nM.

With `COc1cc(NCCCCCNc2cc(Cl)nc3ccccc23)nc2ccccc12`, the IC50 turned out to be 780 nM. This IC50 and that of the compound before are within 1.5-fold of each other.

`Cc1cccn2c(=O)c3cc(C(=O)NC(C)c4ccccc4)c(=N)n(CCN4CCOCC4)c3nc12` (centres undefined) returned an IC50 of 820 nM.

Take `COc1ccc(C=C2SC(=N)N(c3ccccc3OC)C2=O)cc1`: the concentration for half-maximal inhibition (IC50) worked out at 300 nM. This IC50 lies about 2.7-fold lower than the previous one.

For the compound `Nc1nc2ccc(CN(C=O)c3ccc(C(=O)N[C@@H](CCC(=O)O)C(=O)O)cc3)cc2c(=O)[nH]1`, the IC50 amounted to 180 nM.

In turn, `CCN(CC)CCNc1ccnc2[nH]c3ccc(Cl)cc3c12` had an IC50 of 240 nM.

Take `O=C(C=Cc1ccc(-c2ccccc2)cc1)NC1CCC(CN2CCC(c3c[nH]c4ccccc34)CC2)CC1` (centres undefined): the IC50 was 810 nM and 740 nM.

On to `CC(=O)C1=NN(c2ccc(C)cc2)C(c2cccs2)N1c1ccccc1` (centres undefined), for which the half-maximal inhibitory concentration (IC50) worked out at 340 nM.

Regarding `CC(Oc1ccc(Cl)cc1)C(=O)NCCC1CCN(CCCCCNC(=O)/C=C/c2ccc(Cl)c(Cl)c2)CC1` (centres undefined), the IC50 was determined as 1020 nM.

In the case of `COc1ccc(-c2nc(NC(=O)CS(=O)(=O)c3ccc(OC)cc3)sc2C)cc1`, the 50% inhibitory concentration (IC50) amounted to 300 nM.

In turn, `O=C(Nc1cccc(CN2CCCN(Cc3ccsc3)CC2)c1)c1ccc(-c2ccccc2)cc1` showed a concentration for half-maximal inhibition (IC50) of 1340 nM. Compared with the last compound, the IC50 is about 4.5-fold higher.

Compound `Nc1nnc(-c2ccc(Cl)c(Br)c2)c(N)n1` came in with an IC50 of 1040 nM.

With `CCc1c[nH]c2c(N3CCCS3(=O)=O)cc(C(=O)N[C@@H](Cc3ccccc3)[C@H](O)CNC3CCCCC3)cc12`, the half-inhibitory concentration (IC50) came out at 770 nM.

For `CC(C)CNC(=O)c1ccnc(-c2ccc(CNCCCc3ccccc3)cc2)c1`, the concentration for half-maximal inhibition (IC50) came out at 730 nM.

The compound `Cc1nnsc1C(=O)Nc1cccc(-c2ccc(-c3nc4ccc(F)cc4[nH]3)s2)c1` showed an IC50 of 890 nM.

With `CCOC(=O)c1cc2c(CCN3C(=O)c4ccccc4C3=O)cn(C)c2cc1-c1ccncc1`, the concentration for half-maximal inhibition (IC50) came out at 580 nM.

Compound `CCc1c(CCNCCCCCCNCCc2ccc3c(c2C)OCO3)ccc2c1OCO2` registered a 50% inhibitory concentration (IC50) of 610 nM.

The compound `Cc1noc(NC(=O)c2sc3ccccc3c2O)c1C` returned a half-maximal inhibitory concentration (IC50) of 850 nM. This IC50 and that of the compound before are within 1.5-fold of each other.

In turn, `Cc1cccc2[nH]c(-c3cccc(-c4ccc(NC(=O)CN5CCN(C)CC5)cc4)c3)nc12` returned a half-inhibitory concentration (IC50) of 560 nM.

With `CC(C)(C)c1ccc(NC(=O)c2ccc(CN3CCCN(Cc4cccc(C#N)c4)CC3)cc2)cc1`, the half-maximal inhibitory concentration (IC50) is 640 nM.

Take `O=C(Nc1cccc(CN2CCCN(Cc3ccc(O)cc3)CC2)c1)c1cccc(C(F)(F)F)c1`: the IC50 was determined as 310 nM.

`CCNc1cc(C(=O)N[C@@H](Cc2ccccc2)[C@H](O)CNC2CCC(C(C)(C)C)CC2)cc(N2CCCC2=O)c1` (some centres undefined) displayed an IC50 of 440 nM.

With `O=[N+]([O-])c1cccc(-n2nc(NCc3ccc(Cl)cc3)nc2-c2ccc(F)c(C(F)(F)F)c2)c1`, the concentration for half-maximal inhibition (IC50) amounted to 240 nM.

Compound `OC(CN1c2ccccc2Sc2ccccc21)CN(C1CCCCC1)C1CCCCC1` (centres undefined) returned an IC50 of 650 nM.
